Source: ChEMBL document CHEMBL4316655, “Sesquiterpenoids from the Endophytic Fungus Rhinocladiella similis” (J Nat Prod, 2019)
Converted amounts (≈) assume the structure as drawn.

What was measured:
L5178Y = assay: Cytotoxicity against mouse L5178Y cells by MTT assay; assay type: functional, cell-based
Klebsiella pneumoniae = assay: Antibacterial activity against Klebsiella pneumoniae ATCC 13883 by broth microdilution method; assay type: functional
Staphylococcus aureus = assay: Antibacterial activity against Staphylococcus aureus ATCC 29213 by broth microdilution method; assay type: functional
Enterococcus faecium = assay: Antibacterial activity against Enterococcus faecium ATCC 35667 by broth microdilution method; assay type: functional

SMILES | IC50 (L5178Y) [µM] | MIC (Klebsiella pneumoniae) [µM] | MIC (Staphylococcus aureus) [µM] | MIC (Enterococcus faecium) [µM]
CC(C)[C@H]1CC[C@@](O)(COC(=O)C2=C[C@@H]3[C@@H](C(C)C)CC[C@@](O)(CCl)[C@H]3C(=O)OC2)[C@H]2C(=O)OCC(C(=O)O)=C[C@H]12 | 5 | – | – | –
CC(C)[C@H]1CCC(CO)=C[C@@H]1/C=C(\CO)C(=O)O [GLIOCLADIC ACID] | 24.4 | – | – | –
CC(C)[C@H]1CC[C@H](CO)[C@@H]2[C@@H]1C=C(C(=O)O)C[C@H]2O | 8.7 | – | – | –
CC(C)[C@H]1CC[C@@](O)(CCl)[C@H]2C(=O)OCC(C(=O)O)=C[C@H]12 [HEPTELIDIC ACID CHLOROHYDRIN] | – | 100 (≈ 31.7 µg/mL) | 50 (≈ 15.8 µg/mL) | 50 (≈ 15.8 µg/mL)
